Source: the supplement of paper PMC10307832

Legend:
Assay in all cases: relative viability (nuclei count vs DMSO), 5 days (fraction); higher = more cells survive
[1] = compound: CN1CCC(CC1)OC2=CC(=C(C=C2)NC3=NC=C4C(=N3)N(C(=O)N4C)C5CCCC5)OC [AZ3146] + COc1cccc2cc(-c3nc([C@H]4CC[C@H](C(=O)O)CC4)n4ncnc(N)c34)[nH]c12 [OSI-027] (partner 0.5 µM)
Method in brief: (§1)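 Lung cancer cell lines in 1536-well plates were dosed by pin tool the day after seeding, either with one drug alone or with a fixed anchor-drug dose plus five library-drug doses (not always all listed) in √10 steps. After 5 days, cells were fixed and their nuclei stained in one step (final 0.05% Triton X-100, 1% formaldehyde, 1 ug/ml Hoechst), then counted on 4× images. Relative viability is the nuclei count in treated wells divided by that in vehicle wells. Values are medians of duplicate plates.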

[2] = compound: CN1CCC(CC1)OC2=CC(=C(C=C2)NC3=NC=C4C(=N3)N(C(=O)N4C)C5CCCC5)OC [AZ3146] + O=C(CCCCCCC(=O)Nc1ccccc1)NO [Vorinostat] (partner 1 µM)
Method in brief: as §1

[3] = compound: CN1CCC(CC1)OC2=CC(=C(C=C2)NC3=NC=C4C(=N3)N(C(=O)N4C)C5CCCC5)OC [AZ3146] + Cc1nc(NC(=O)N2CCC[C@H]2C(N)=O)sc1-c1ccnc(C(C)(C)C(F)(F)F)c1 [Alpelisib] (partner 2 µM)
Method in brief: as §1

[4] = compound: CN1CCC(CC1)OC2=CC(=C(C=C2)NC3=NC=C4C(=N3)N(C(=O)N4C)C5CCCC5)OC [AZ3146] + C[C@]1(O)C[C@@H](c2nc(-c3ccc4ccc(-c5ccccc5)nc4c3)c3c(N)nccn32)C1 [Linsitinib] (partner 1 µM)
Method in brief: as §1

Row | Cell Line | relative viability ([1]; first compound 0.08 µM) | relative viability ([1]; first compound 0.253 µM) | relative viability ([1]; first compound 0.8 µM) | relative viability ([1]; first compound 2.53 µM) | relative viability ([1]; first compound 8 µM) | relative viability ([2]; first compound 0.08 µM) | relative viability ([2]; first compound 0.253 µM) | relative viability ([2]; first compound 0.8 µM) | relative viability ([2]; first compound 2.53 µM) | relative viability ([2]; first compound 8 µM) | relative viability ([3]; first compound 0.08 µM) | relative viability ([3]; first compound 0.253 µM) | relative viability ([3]; first compound 0.8 µM) | relative viability ([3]; first compound 2.53 µM) | relative viability ([3]; first compound 8 µM) | relative viability ([4]; first compound 0.08 µM) | relative viability ([4]; first compound 0.253 µM) | relative viability ([4]; first compound 0.8 µM) | relative viability ([4]; first compound 2.53 µM) | relative viability ([4]; first compound 8 µM)
1 | NCI-H522 | 0.882 | 0.664 | 0.527 | 0.68 | 0.759 | 0.66 | 0.695 | 0.945 | 0.903 | 0.835 |  |  |  |  |  |  |  |  |  | 
2 | HCC-366 | 0.781 | 0.85 | 0.863 | 0.865 | 0.884 | 0.192 | 0.408 | 0.352 | 0.278 | 0.14 | 0.357 | 0.379 | 0.419 | 0.433 | 0.393 | 0.674 | 0.598 | 0.593 | 0.637 | 0.855
3 | A-427 | 0.431 | 0.586 | 0.429 | 0.574 | 0.338 | 0.763 | 0.881 | 0.833 | 0.809 | 0.593 | 1.04 | 1.06 | 1.01 | 0.93 | 1.02 | 1.08 | 1.07 | 1.04 | 1.19 | 1.12
4 | NCI-H2347 | 0.245 | 0.452 | 0.48 | 0.293 | 0.466 | 0.523 | 0.562 | 0.574 | 0.717 | 0.596 | 0.944 | 1.01 | 0.708 | 1.1 | 1.04 | 1.01 | 0.893 | 0.891 | 0.887 | 0.988
5 | NCI-H1792 | 0.638 | 0.735 |  | 0.699 | 0.714 |  |  |  |  |  | 0.577 | 0.75 | 0.762 | 0.667 | 0.718 | 0.436 | 0.551 | 0.523 | 0.6 | 0.65
6 | SK-LU-1 | 0.358 | 0.326 | 0.304 | 0.342 | 0.357 | 0.746 | 0.854 | 0.752 | 0.792 | 0.504 | 0.892 | 1.05 | 1.15 | 1.23 | 0.571 | 1.02 | 1.4 | 1.13 | 1.27 | 0.547
7 | RERF-LC-KJ | 0.669 | 0.548 | 0.571 | 0.575 | 0.398 | 0.534 | 0.657 | 0.774 | 0.756 | 0.576 | 0.805 | 0.834 | 0.685 | 0.888 | 0.747 | 0.904 | 0.902 | 0.972 | 0.876 | 0.896
8 | NCI-H1993 | 0.531 | 0.579 | 0.541 | 0.531 | 0.543 | 0.724 | 1.03 | 1.06 | 1.05 | 0.559 | 0.785 | 0.713 | 0.61 | 0.666 | 0.662 | 0.689 | 0.731 | 0.782 | 0.789 | 0.704
9 | NCI-H1734 | 0.592 | 0.554 | 0.641 | 0.591 | 0.553 | 0.646 | 0.886 | 0.782 | 0.795 | 0.584 | 0.731 | 0.62 | 0.731 | 0.649 | 0.696 | 0.787 | 0.871 | 0.965 | 0.877 | 0.934
10 | HCC-44 | 0.484 | 0.427 | 0.416 | 0.622 | 0.558 | 1.07 | 1.07 | 1.05 | 1.12 | 1.13 | 0.676 | 0.805 | 0.797 | 0.807 | 0.859 | 0.598 | 0.618 | 0.685 | 0.718 | 0.675
11 | NCI-H1944 | 0.382 | 0.359 | 0.446 | 0.464 | 0.374 | 0.425 | 0.579 | 0.606 | 0.616 | 0.543 |  | 0.845 | 0.991 | 0.825 | 0.861 |  | 1.11 | 1.14 | 1.21 | 1.35
12 | HCC-78 | 0.3 | 0.381 | 0.322 | 0.357 | 0.365 |  | 0.496 | 0.435 | 0.354 | 0.471 |  | 0.268 | 0.224 | 0.367 | 0.321 |  | 0.476 | 0.416 | 0.532 | 0.522
13 | NCI-H838 | 0.38 | 0.432 | 0.341 | 0.325 | 0.373 | 0.67 | 0.756 | 0.69 | 0.589 | 0.308 | 0.95 | 1.06 | 0.883 | 0.985 | 0.858 | 0.921 | 1 | 0.97 | 0.971 | 0.79
14 | SW 1573 | 0.678 | 0.633 | 0.453 | 0.662 | 0.204 | 0.636 | 0.767 | 0.643 | 0.723 | 0.307 | 0.843 | 0.762 | 0.762 | 0.894 | 0.757 | 0.912 | 0.933 | 0.823 | 0.859 | 0.708
15 | NCI-H1623 | 0.39 | 0.482 | 0.458 | 0.405 | 0.402 |  |  |  |  |  |  |  |  |  |  |  |  |  |  | 
16 | ChaGo-K-1 | 0.572 | 0.611 | 0.539 | 0.581 | 0.366 | 0.711 | 0.691 | 0.703 | 0.718 | 0.521 |  |  |  |  |  |  |  |  |  | 
17 | LCLC-97TM1 | 0.501 | 0.585 | 0.364 | 0.415 | 0.396 | 0.356 | 0.761 | 0.631 | 0.635 | 0.653 |  |  | 0.245 | 0.3 | 0.247 |  |  | 0.221 | 0.164 | 0.173
18 | COR-L 105 | 0.63 | 0.653 | 0.587 | 0.641 | 0.404 | 0.819 | 0.887 | 0.902 | 0.879 | 0.487 | 1.01 | 1.15 | 0.86 | 1.1 | 0.665 | 0.963 | 1.2 | 0.891 | 0.888 | 0.787
